# Reference: article PMC7358406, “Molecular and Biochemical Characterization of Salt-Tolerant Trehalose-6-Phosphate Hydrolases Identified by Screening and Sequencing Salt-Tolerant Clones From the Metagenomic Library of the Gastrointestinal Tract” (Frontiers in Microbiology, 2020)
# Key:
# [1] = test system: T1, rTRE_P2 (TRE_P2), trehalose-6-phosphate hydrolase; assay: p-nitrophenol release, A410, initial rates; type: biochemical, Staphylococcus warneri; conditions: 50 mM HEPES-NaOH pH 7.5 and 100 mM NaCl (standard assay), 30°C; pNPG 0.5-10 mM
# T1 construct: full length without signal peptide, gene 1638 bp
# [2] = test system: T2, rTRE_P3 (TRE_P3), trehalose-6-phosphate hydrolase; assay: p-nitrophenol release, A410, initial rates; type: biochemical, Staphylococcus warneri; conditions: 50 mM HEPES-NaOH pH 7.5 and 100 mM NaCl (standard assay), 30°C; pNPG 0.5-10 mM
# T2 construct: full length without signal peptide, gene 1644 bp
smiles,measurement,setting,value
O=[N+]([O-])c1ccc(O[C@H]2O[C@H](CO)[C@@H](O)[C@H](O)[C@H]2O)cc1 [p-nitrophenyl-α-D-glucopyranoside],Km,[1],15.6 mM
same,Km,[2],12.5 mM
